Measured values from the supplement of paper PMC4862054.
Several values for one entry are separate records, joined by “and”; a condition that tells them apart may be missing. Equal entries are not always repeated.

Tested on: DU-4475
Assay: normalised viability (% of control), CellTiter-Blue; higher = more viable cells (about 100 = DMSO control)
Conditions: 10 nM; incubation time: 72 h
Description: (§1)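 DSRT, CellTiter-Blue viability, 72 h incubation. Signal is normalised to DMSO and benzethonium chloride controls. Value is the normalised response at dose 3.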

Structure (SMILES)	normalised viability
Nc1cccc2c1CN(C1CCC(=O)NC1=O)C2=O (stereo not given) [Lenalidomide]	103% and 112%
Nc1ccccc1NC(=O)c1ccc(CNc2nccc(-c3cccnc3)n2)cc1 [Mocetinostat]	91%
Cc1ccc(Nc2nccc(N(C)c3ccc4c(C)n(C)nc4c3)n2)cc1S(N)(=O)=O [Pazopanib]	103%
O=C(CCBr)N1CCN(C(=O)CCBr)CC1 [Pipobroman]	103%
C[C@]12C=CC(=O)C=C1CC[C@@H]1[C@@H]2[C@@H](O)C[C@@]2(C)[C@H]1CC[C@]2(O)C(=O)CO [Prednisolone]	101%

Tested on: HCC1599
Assay: as above
Conditions: 10 nM; incubation time: 72 h
Description: as §1

Structure (SMILES)	normalised viability
C[C@]12O[C@H](C[C@]1(O)CO)n1c3ccccc3c3c4c(c5c6ccccc6n2c5c31)CNC4=O [Lestaurtinib]	102%
O=C1c2c(O)ccc(O)c2C(=O)c2c(NCCNCCO)ccc(NCCNCCO)c21 [Mitoxantrone]	108%
CCN(CC)CCNC(=O)c1c(C)[nH]c(/C=C2\C(=O)Nc3ccc(F)cc32)c1C [Sunitinib]	125% and 105%
CC[C@@]1(O)C(=O)OCc2c1cc1n(c2=O)Cc2cc3c(CN(C)C)c(O)ccc3nc2-1 [Topotecan]	109%

Same assay, conditions: 25 nM; incubation time: 72 h

Structure (SMILES)	normalised viability [%]
c1cc(CN2CCCNCCNCCCNCC2)ccc1CN1CCCNCCNCCCNCC1 [Plerixafor]	101

Same assay, conditions: 100 nM; incubation time: 72 h

Structure (SMILES)	normalised viability
Nc1cccc2c1CN(C1CCC(=O)NC1=O)C2=O (stereo not given) [Lenalidomide]	117% and 96.9%
Nc1ccccc1NC(=O)c1ccc(CNc2nccc(-c3cccnc3)n2)cc1 [Mocetinostat]	86.9%
Cc1ccc(Nc2nccc(N(C)c3ccc4c(C)n(C)nc4c3)n2)cc1S(N)(=O)=O [Pazopanib]	108%
O=C(CCBr)N1CCN(C(=O)CCBr)CC1 [Pipobroman]	93.4%
C[C@]12C=CC(=O)C=C1CC[C@@H]1[C@@H]2[C@@H](O)C[C@@]2(C)[C@H]1CC[C@]2(O)C(=O)CO [Prednisolone]	102%

Tested on: HCC1937
Assay: as above
Conditions: 10 nM; incubation time: 72 h
Description: as §1

Structure (SMILES)	normalised viability
C[C@]12O[C@H](C[C@]1(O)CO)n1c3ccccc3c3c4c(c5c6ccccc6n2c5c31)CNC4=O [Lestaurtinib]	79.5%
O=C1c2c(O)ccc(O)c2C(=O)c2c(NCCNCCO)ccc(NCCNCCO)c21 [Mitoxantrone]	46.6%
CCN(CC)CCNC(=O)c1c(C)[nH]c(/C=C2\C(=O)Nc3ccc(F)cc32)c1C [Sunitinib]	98.6% and 91%
CC[C@@]1(O)C(=O)OCc2c1cc1n(c2=O)Cc2cc3c(CN(C)C)c(O)ccc3nc2-1 [Topotecan]	81.3%

Same assay, conditions: 25 nM; incubation time: 72 h

Structure (SMILES)	normalised viability [%]
c1cc(CN2CCCNCCNCCCNCC2)ccc1CN1CCCNCCNCCCNCC1 [Plerixafor]	102

Same assay, conditions: 100 nM; incubation time: 72 h

Structure (SMILES)	normalised viability
Nc1cccc2c1CN(C1CCC(=O)NC1=O)C2=O (stereo not given) [Lenalidomide]	92.2% and 102%
Nc1ccccc1NC(=O)c1ccc(CNc2nccc(-c3cccnc3)n2)cc1 [Mocetinostat]	79.2%
Cc1ccc(Nc2nccc(N(C)c3ccc4c(C)n(C)nc4c3)n2)cc1S(N)(=O)=O [Pazopanib]	94%
O=C(CCBr)N1CCN(C(=O)CCBr)CC1 [Pipobroman]	87.9%
C[C@]12C=CC(=O)C=C1CC[C@@H]1[C@@H]2[C@@H](O)C[C@@]2(C)[C@H]1CC[C@]2(O)C(=O)CO [Prednisolone]	94%

Tested on: HDQ-P1
Assay: as above
Conditions: 1 nM; incubation time: 72 h
Description: as §1

Structure (SMILES)	normalised viability
C[C@]12O[C@H](C[C@]1(O)CO)n1c3ccccc3c3c4c(c5c6ccccc6n2c5c31)CNC4=O [Lestaurtinib]	113%
O=C1c2c(O)ccc(O)c2C(=O)c2c(NCCNCCO)ccc(NCCNCCO)c21 [Mitoxantrone]	95%
CCN(CC)CCNC(=O)c1c(C)[nH]c(/C=C2\C(=O)Nc3ccc(F)cc32)c1C [Sunitinib]	103% and 99.8%
CC[C@@]1(O)C(=O)OCc2c1cc1n(c2=O)Cc2cc3c(CN(C)C)c(O)ccc3nc2-1 [Topotecan]	114%

Same assay, conditions: 2.5 nM; incubation time: 72 h

Structure (SMILES)	normalised viability [%]
c1cc(CN2CCCNCCNCCCNCC2)ccc1CN1CCCNCCNCCCNCC1 [Plerixafor]	112

Same assay, conditions: 10 nM; incubation time: 72 h

Structure (SMILES)	normalised viability
Nc1cccc2c1CN(C1CCC(=O)NC1=O)C2=O (stereo not given) [Lenalidomide]	101% and 93.8%
Nc1ccccc1NC(=O)c1ccc(CNc2nccc(-c3cccnc3)n2)cc1 [Mocetinostat]	117%
Cc1ccc(Nc2nccc(N(C)c3ccc4c(C)n(C)nc4c3)n2)cc1S(N)(=O)=O [Pazopanib]	93.8%
O=C(CCBr)N1CCN(C(=O)CCBr)CC1 [Pipobroman]	99.4%
C[C@]12C=CC(=O)C=C1CC[C@@H]1[C@@H]2[C@@H](O)C[C@@]2(C)[C@H]1CC[C@]2(O)C(=O)CO [Prednisolone]	108%

Tested on: Hs578T
Assay: as above
Conditions: 10 nM; incubation time: 72 h
Description: as §1

Structure (SMILES)	normalised viability
C[C@]12O[C@H](C[C@]1(O)CO)n1c3ccccc3c3c4c(c5c6ccccc6n2c5c31)CNC4=O [Lestaurtinib]	83%
O=C1c2c(O)ccc(O)c2C(=O)c2c(NCCNCCO)ccc(NCCNCCO)c21 [Mitoxantrone]	71.8%
CCN(CC)CCNC(=O)c1c(C)[nH]c(/C=C2\C(=O)Nc3ccc(F)cc32)c1C [Sunitinib]	96.2% and 90.4%
CC[C@@]1(O)C(=O)OCc2c1cc1n(c2=O)Cc2cc3c(CN(C)C)c(O)ccc3nc2-1 [Topotecan]	101%

Same assay, conditions: 25 nM; incubation time: 72 h

Structure (SMILES)	normalised viability [%]
c1cc(CN2CCCNCCNCCCNCC2)ccc1CN1CCCNCCNCCCNCC1 [Plerixafor]	93.4

Same assay, conditions: 100 nM; incubation time: 72 h

Structure (SMILES)	normalised viability
Nc1cccc2c1CN(C1CCC(=O)NC1=O)C2=O (stereo not given) [Lenalidomide]	85.7% and 86.3%
Nc1ccccc1NC(=O)c1ccc(CNc2nccc(-c3cccnc3)n2)cc1 [Mocetinostat]	80.8%
Cc1ccc(Nc2nccc(N(C)c3ccc4c(C)n(C)nc4c3)n2)cc1S(N)(=O)=O [Pazopanib]	86.5%
O=C(CCBr)N1CCN(C(=O)CCBr)CC1 [Pipobroman]	91.4%
C[C@]12C=CC(=O)C=C1CC[C@@H]1[C@@H]2[C@@H](O)C[C@@]2(C)[C@H]1CC[C@]2(O)C(=O)CO [Prednisolone]	81.3%

Tested on: MDA-MB-231
Assay: as above
Conditions: 10 nM; incubation time: 72 h
Description: as §1

Structure (SMILES)	normalised viability
C[C@]12O[C@H](C[C@]1(O)CO)n1c3ccccc3c3c4c(c5c6ccccc6n2c5c31)CNC4=O [Lestaurtinib]	110%
O=C1c2c(O)ccc(O)c2C(=O)c2c(NCCNCCO)ccc(NCCNCCO)c21 [Mitoxantrone]	72.5%
CCN(CC)CCNC(=O)c1c(C)[nH]c(/C=C2\C(=O)Nc3ccc(F)cc32)c1C [Sunitinib]	84.8% and 87.2%
CC[C@@]1(O)C(=O)OCc2c1cc1n(c2=O)Cc2cc3c(CN(C)C)c(O)ccc3nc2-1 [Topotecan]	90.1%

Same assay, conditions: 25 nM; incubation time: 72 h

Structure (SMILES)	normalised viability [%]
c1cc(CN2CCCNCCNCCCNCC2)ccc1CN1CCCNCCNCCCNCC1 [Plerixafor]	93.9

Same assay, conditions: 100 nM; incubation time: 72 h

Structure (SMILES)	normalised viability
Nc1cccc2c1CN(C1CCC(=O)NC1=O)C2=O (stereo not given) [Lenalidomide]	88.9% and 87.4%
Nc1ccccc1NC(=O)c1ccc(CNc2nccc(-c3cccnc3)n2)cc1 [Mocetinostat]	84.3%
Cc1ccc(Nc2nccc(N(C)c3ccc4c(C)n(C)nc4c3)n2)cc1S(N)(=O)=O [Pazopanib]	94.3%
O=C(CCBr)N1CCN(C(=O)CCBr)CC1 [Pipobroman]	94.7%
C[C@]12C=CC(=O)C=C1CC[C@@H]1[C@@H]2[C@@H](O)C[C@@]2(C)[C@H]1CC[C@]2(O)C(=O)CO [Prednisolone]	114%

Tested on: MDA-MB-436
Assay: as above
Conditions: 10 nM; incubation time: 72 h
Description: as §1

Structure (SMILES)	normalised viability
C[C@]12O[C@H](C[C@]1(O)CO)n1c3ccccc3c3c4c(c5c6ccccc6n2c5c31)CNC4=O [Lestaurtinib]	103%
O=C1c2c(O)ccc(O)c2C(=O)c2c(NCCNCCO)ccc(NCCNCCO)c21 [Mitoxantrone]	99.6%
CCN(CC)CCNC(=O)c1c(C)[nH]c(/C=C2\C(=O)Nc3ccc(F)cc32)c1C [Sunitinib]	102% and 107%
CC[C@@]1(O)C(=O)OCc2c1cc1n(c2=O)Cc2cc3c(CN(C)C)c(O)ccc3nc2-1 [Topotecan]	107%

Same assay, conditions: 25 nM; incubation time: 72 h

Structure (SMILES)	normalised viability [%]
c1cc(CN2CCCNCCNCCCNCC2)ccc1CN1CCCNCCNCCCNCC1 [Plerixafor]	95.7

Same assay, conditions: 100 nM; incubation time: 72 h

Structure (SMILES)	normalised viability
Nc1cccc2c1CN(C1CCC(=O)NC1=O)C2=O (stereo not given) [Lenalidomide]	80% and 93.4%
Nc1ccccc1NC(=O)c1ccc(CNc2nccc(-c3cccnc3)n2)cc1 [Mocetinostat]	81.2%
Cc1ccc(Nc2nccc(N(C)c3ccc4c(C)n(C)nc4c3)n2)cc1S(N)(=O)=O [Pazopanib]	88.3%
O=C(CCBr)N1CCN(C(=O)CCBr)CC1 [Pipobroman]	93%
C[C@]12C=CC(=O)C=C1CC[C@@H]1[C@@H]2[C@@H](O)C[C@@]2(C)[C@H]1CC[C@]2(O)C(=O)CO [Prednisolone]	96.6%
